PubChem BioAssay AID1259407 (Chemical Carcinogenesis Research Information System (CCRIS), 2018)
The source made the active and inactive calls. No rule for the calls is given here.

Tested on: CCRIS mutagenicity, Ames/micronucleus/aberration tests
Assay: CCRIS mutagenicity studies
[1] = Test System: AMES SALMONELLA TYPHIMURIUM, Strain/Indicator: TA98, Metabolic Activation: NONE, Method: STANDARD PLATE
[2] = Test System: AMES SALMONELLA TYPHIMURIUM, Strain/Indicator: TA98, Metabolic Activation: RAT, LIVER, S-9, AROCLOR 1254, Method: STANDARD PLATE
[3] = Test System: AMES SALMONELLA TYPHIMURIUM, Strain/Indicator: TA100, Metabolic Activation: NONE, Method: STANDARD PLATE
[4] = Test System: AMES SALMONELLA TYPHIMURIUM, Strain/Indicator: TA100, Metabolic Activation: RAT, LIVER, S-9, AROCLOR 1254, Method: STANDARD PLATE

Measured: mutagenic call

O=[N+]([O-])c1c2ccccc2c2ccc3cccc4ccc1c2c43
inactive: Test System: AMES SALMONELLA TYPHIMURIUM, Strain/Indicator: TA98 (1,8-DNP6), Metabolic Activation: NONE, Method: STANDARD PLATE inactive; negative | Test System: AMES SALMONELLA TYPHIMURIUM, Strain/Indicator: TA98 (NR), Metabolic Activation: NONE, Method: STANDARD PLATE inactive; negative | [1] inactive; negative | Test System: AMES SALMONELLA TYPHIMURIUM, Strain/Indicator: TA98, Metabolic Activation: NONE, Method: STANDARD PLATE (ANAEROBIC) inactive; negative | Test System: AMES SALMONELLA TYPHIMURIUM, Strain/Indicator: TA98, Metabolic Activation: RAT, LIVER, HEPATOCYTES, AROCLOR 1254 inactive; negative | Test System: AMES SALMONELLA TYPHIMURIUM, Strain/Indicator: TA98, Metabolic Activation: RAT, LIVER, S-9, PHENOBARBITAL, Method: STANDARD PLATE inactive; negative | [3] inactive; negative | Test System: CHINESE HAMSTER OVARY, Strain/Indicator: CHO-K1-BH4 (HGPRT), Metabolic Activation: NONE inactive; negative | Test System: CHO/HGPRT, Strain/Indicator: CHO-K1-BH4, Metabolic Activation: NONE inactive; negative | Test System: CHO/HGPRT, Strain/Indicator: CHO-K1-BH4, Metabolic Activation: RAT, LIVER, HEPATOCYTES inactive; negative | Test System: CHO/HGPRT, Strain/Indicator: CHO-K1-BH4, Metabolic Activation: RAT, LIVER, HEPATOCYTES, 3-METHYLCHOLANTHRENE inactive; negative | Test System: CHO/HGPRT, Strain/Indicator: CHO-K1-BH4, Metabolic Activation: RAT, LIVER, HEPATOCYTES, AROCLOR 1254 inactive; negative | Test System: CHO/HGPRT, Strain/Indicator: CHO-K1-BH4, Metabolic Activation: RAT, LIVER, S-9 inactive; negative | Test System: CHO/HGPRT, Strain/Indicator: CHO-K1-BH4, Metabolic Activation: RAT, LIVER, S-9, 3-METHYLCHOLANTHRENE inactive; negative | Test System: CHO/HGPRT, Strain/Indicator: CHO-K1-BH4, Metabolic Activation: RAT, LIVER, S-9, AROCLOR 1254 inactive; negative
active: Test System: AMES SALMONELLA TYPHIMURIUM, Strain/Indicator: TA98, Metabolic Activation: RAT, LIVER, S-9, 3-METHYLCHOLANTHRENE, Method: STANDARD PLATE active; positive | [2] active; positive | Test System: AMES SALMONELLA TYPHIMURIUM, Strain/Indicator: TA98, Metabolic Activation: RAT, LIVER, S-9, BETA-NAPHTHOFLAVONE, Method: STANDARD PLATE active; positive | Test System: AMES SALMONELLA TYPHIMURIUM, Strain/Indicator: TA100, Metabolic Activation: RAT, LIVER, S-9, AROCLOR 1254 (20 OR 50 µL), Method: STANDARD PLATE active; positive

O=C(/C=C/c1ccccc1)c1ccc(O)cc1
inactive: [1] inactive; negative | [2] inactive; negative | [3] inactive; negative | [4] inactive; negative

CC(C)(C)NCC(O)COc1cccc2c1CC(O)C(O)C2 (stereo not given)
inactive: [1] inactive; negative | [2] inactive; negative | [3] inactive; negative | [4] inactive; negative | Test System: UDS HUMAN HEPATOCYTES, Strain/Indicator: THY INCORP, Metabolic Activation: NONE, Method: AUTORADIOGRAPHY inactive; negative | Test System: UDS RAT HEPATOCYTES, Strain/Indicator: THY INCORP, Metabolic Activation: NONE, Method: AUTORADIOGRAPHY inactive; negative

COC(C)CCO (stereo not given)
inactive: Test System: AMES SALMONELLA TYPHIMURIUM, Strain/Indicator: TA98, Metabolic Activation: NONE, Method: PREINCUBATION inactive; negative | Test System: AMES SALMONELLA TYPHIMURIUM, Strain/Indicator: TA98, Metabolic Activation: RAT LIVER S-9, PHENOBARBITAL AND BETA-NAPHTHOFLAVONE, Method: PREINCUBATION inactive; negative | Test System: AMES SALMONELLA TYPHIMURIUM, Strain/Indicator: TA100, Metabolic Activation: NONE, Method: PREINCUBATION inactive; negative | Test System: AMES SALMONELLA TYPHIMURIUM, Strain/Indicator: TA100, Metabolic Activation: RAT LIVER S-9, PHENOBARBITAL AND BETA-NAPHTHOFLAVONE, Method: PREINCUBATION inactive; negative | Test System: AMES SALMONELLA TYPHIMURIUM, Strain/Indicator: TA1535, Metabolic Activation: NONE, Method: PREINCUBATION inactive; negative | Test System: AMES SALMONELLA TYPHIMURIUM, Strain/Indicator: TA1535, Metabolic Activation: RAT LIVER S-9, PHENOBARBITAL AND BETA-NAPHTHOFLAVONE, Method: PREINCUBATION inactive; negative | Test System: AMES SALMONELLA TYPHIMURIUM, Strain/Indicator: TA1537, Metabolic Activation: NONE, Method: PREINCUBATION inactive; negative | Test System: AMES SALMONELLA TYPHIMURIUM, Strain/Indicator: TA1537, Metabolic Activation: RAT LIVER S-9, PHENOBARBITAL AND BETA-NAPHTHOFLAVONE, Method: PREINCUBATION inactive; negative | Test System: E.COLI, Strain/Indicator: WP2UVRA/PKM101, Metabolic Activation: NONE, Method: PREINCUBATION inactive; negative | Test System: E.COLI, Strain/Indicator: WP2UVRA/PKM101, Metabolic Activation: RAT LIVER S-9, PHENOBARBITAL AND BETA-NAPHTHOFLAVONE, Method: PREINCUBATION inactive; negative

CCOc1cccc2cccnc12
inactive: Test System: AMES SALMONELLA TYPHIMURIUM, Strain/Indicator: TA100, Metabolic Activation: S-9, Method: PREINCUBATION inactive; negative
